Experimental data: US9139532B2, “Pyrazolyl guanidine F1F0-atpase inhibitors and therapeutic uses thereof” (Lycera Corporation, priority 2010, dated 2015)
Like-named read-outs stand apart in the source and are kept apart here.

How the values were obtained:
F1F0-ATPase = target: T1, F1F0-ATPase (Bos taurus, UniProt P13621); assay: Inhibition of F1F0-ATPase activity in synthesizing ATP; format: biochemical; details: inhibition of ATP synthesis by F1F0-ATPase; read-out: ATP Syn IC50
T1 construct: from tissue

Ramos cells = assay: Cytotoxicity in Ramos cells; format: cell-based; details: cytotoxicity in Ramos cells, read-out: Ramos Cell EC50

SMILES | IC50 (F1F0-ATPase) [µM] | EC50 (Ramos cells) [µM] | EC50 (Ramos cells; Homo sapiens) [µM]
COc1ccc(C(=O)/N=C(\Nc2cc(-c3ccc(F)cc3)[nH]n2)NC(C)C)cc1 [Compound A-523] | < 10 | > 10 | –
COc1cccc(C(=O)/N=C(\Nc2cc(-c3ccc(F)cc3)[nH]n2)NC(C)C)c1 [Compound A-524] | < 10 | < 10 | –
CC(C)(C)NC(=NC(=O)c1cccc(O)c1)Nc1cc(-c2ccc(F)cc2)n[nH]1 [Compound A-525] | < 10 | – | < 10
COC[C@H](C)N/C(=N/C(=O)c1cccc(C#N)c1)Nc1cc(-c2ccc(F)cc2)[nH]n1 [Compound A-526] | < 10 | > 10 | –
CC(C)(C)NC(=NC(=O)c1cccc(C#N)c1)Nc1cc(-c2ccc(F)cc2)n[nH]1 [Compound A-527] | < 10 | – | < 10
COCC(C)NC(=NC(=O)c1ccc(C#N)cc1)Nc1cc(-c2ccc(F)cc2)n[nH]1 (centres unmarked) [Compound A-528] | < 10 | – | > 10
CC(C)(C)N/C(=N/C(=O)c1ccc(C#N)cc1)Nc1cc(-c2ccc(F)cc2)[nH]n1 [Compound A-529] | < 10 | > 10 | –
CC(C)(CO)N/C(=N/C(=O)c1ccc(F)cc1)Nc1cc(C(F)(F)F)[nH]n1 [Compound A-531] | < 10 | > 10 | –
O=C(N=C(Nc1cc(C(F)(F)F)n[nH]1)N1CCCC1)c1ccc(C(F)(F)F)cc1 [Compound A-532] | < 10 | – | > 10
COC[C@H](C)NC(=NC(=O)c1ccc(F)cc1)Nc1cc(-c2ccc(F)cc2)n[nH]1 [Compound A-533] | < 10 | – | < 10
COC[C@H](C)N/C(=N/C(=O)c1ccc(C)cc1)Nc1cc(C(F)(F)F)[nH]n1 [Compound A-534] | < 10 | < 10 | –
COC[C@H](C)N/C(=N/C(=O)c1ccc(C)c(F)c1)Nc1cc(C(F)(F)F)[nH]n1 [Compound A-535] | < 10 | < 10 | –
COC[C@H](C)N/C(=N/C(=O)c1ccc(OC)cc1)Nc1cc(C(F)(F)F)[nH]n1 [Compound A-536] | < 10 | < 10 | –
COCC(C)NC(=NC(=O)c1cccc(OC)c1)Nc1cc(C(F)(F)F)n[nH]1 (centres unmarked) [Compound A-537] | < 10 | – | < 10
CC(C)(CO)N/C(=N/C(=O)c1ccc(F)cc1)Nc1cc(-c2ccc(F)cc2)n[nH]1 [Compound A-538] | < 10 | – | > 10
COc1ccc(C(=O)/N=C(\Nc2cc(-c3ccc(F)cc3)[nH]n2)NC(C)(C)C)cc1 [Compound A-539] | < 10 | < 10 | –
COc1cccc(C(=O)N=C(Nc2cc(-c3ccc(F)cc3)n[nH]2)NC(C)(C)C)c1 [Compound A-540] | < 10 | – | < 10
COc1ccc(C(=O)N=C(NCc2ccc(F)cc2Cl)Nc2cc(C(F)(F)F)n[nH]2)cc1 [Compound A-541] | < 10 | – | < 10
COc1cccc(C(=O)N=C(NCc2ccc(F)cc2Cl)Nc2cc(C(F)(F)F)n[nH]2)c1 [Compound A-542] | < 10 | – | < 10
COc1ccccc1C(=O)N=C(NCc1ccc(F)cc1Cl)Nc1cc(C(F)(F)F)n[nH]1 [Compound A-543] | < 10 | – | < 10
CC(C)(C)NC(=NC(=O)c1ccccc1)Nc1cc(C(F)(F)F)n[nH]1 [Compound A-544] | < 10 | – | < 10
O=C(/N=C(\Nc1cc(C(F)(F)F)[nH]n1)NC1CCCC1)c1ccccc1 [Compound A-545] | < 10 | < 10 | –
Cc1ccc(C(=O)/N=C(\Nc2cc(C(F)(F)F)[nH]n2)NC2CCCC2)cc1F [Compound A-546] | < 10 | < 10 | –
Cc1ccc(C(=O)/N=C(\Nc2cc(C(F)(F)F)[nH]n2)NC2CCCC2)cc1 [Compound A-547] | < 10 | < 10 | –
O=C(N=C(Nc1cc(C(F)(F)F)n[nH]1)NC1CCCC1)c1ccc(F)cc1 [Compound A-548] | < 10 | – | < 10
Cc1ccc(C(=O)N=C(NCc2ccc(F)cc2Cl)Nc2cc(C(F)(F)F)n[nH]2)cc1 [Compound A-549] | < 10 | – | < 10

SMILES | IC50 (F1F0-ATPase) [µM] | EC50 (Ramos cells) [µM] | EC50 (Ramos cells; Homo sapiens) [µM]
Cc1ccc(C(=O)/N=C(\Nc2cc(-c3ccc(F)cc3)[nH]n2)NC(C)(C)C)cc1 [Compound A-550] | < 10 | < 10 | –
Cc1cccc(C(=O)/N=C(/NCc2ccc(F)cc2Cl)Nc2cc(C(F)(F)F)[nH]n2)c1 [Compound A-551] | < 10 | < 10 | –
Cc1cccc(C(=O)N=C(Nc2cc(-c3ccc(F)cc3)n[nH]2)NC(C)(C)C)c1 [Compound A-552] | < 10 | – | < 10
Cc1ccc(C(=O)N=C(NCc2ccc(F)cc2Cl)Nc2cc(C(F)(F)F)n[nH]2)cc1F [Compound A-553] | < 10 | – | < 10
Cc1ccc(C(=O)/N=C(\Nc2cc(-c3ccc(F)cc3)[nH]n2)NC(C)(C)C)cc1F [Compound A-554] | < 10 | < 10 | –
Cc1cc(C(=O)/N=C(/NCc2ccc(F)cc2Cl)Nc2cc(C(F)(F)F)[nH]n2)ccc1F [Compound A-555] | < 10 | < 10 | –
Cc1cc(C(=O)N=C(Nc2cc(-c3ccc(F)cc3)n[nH]2)NC(C)(C)C)ccc1F [Compound A-556] | < 10 | – | < 10
O=C(/N=C(\Nc1cc(C(F)(F)F)[nH]n1)NC1CCC(O)CC1)c1ccc(Cl)c(F)c1 (centres unmarked) [Compound A-557] | > 10 | > 10 | –
O=C(N=C(Nc1cc(C(F)(F)F)n[nH]1)NC1CCC(F)(F)CC1)c1ccc(Cl)c(F)c1 [Compound A-558] | < 10 | – | < 10
O=C(N=C(Nc1cc(C(F)(F)F)n[nH]1)NC1CCC(O)CC1)c1ccc(F)c(F)c1 (centres unmarked) [Compound A-559] | > 10 | – | > 10
O=C(/N=C(\Nc1cc(C(F)(F)F)[nH]n1)NC1CCC(O)CC1)c1ccc(C(F)(F)F)cc1 (centres unmarked) [Compound A-560] | < 10 | > 10 | –
O=C(/N=C(\Nc1cc(C(F)(F)F)[nH]n1)NC1CCC(F)(F)CC1)c1ccc(C(F)(F)F)cc1 [Compound A-561] | < 10 | < 10 | –
O=C(/N=C(/NCC(O)CO)Nc1cc(C(F)(F)F)n[nH]1)c1ccc(F)cc1 (centres unmarked) [Compound A-562, (Z)—N-(((2,3-Dihydroxypropyl)amino)((3-(trifluoromethyl)-1H-pyrazol-5-yl)amino)methylene)-4-fluorobenzamide] | > 10 | – | > 10
CC(C)(C)N/C(=N/C(=O)c1ccc(C(F)(F)F)cc1)Nc1cc(-c2ccccc2O)n[nH]1 [Compound A-563, (Z)—N-((tert-Butylamino)((3-(2-hydroxyphenyl)-1H-pyrazol-5-yl)amino)methylene)-4-(trifluoromethyl)benzamide] | < 10 | – | < 10
CC(C)(C)N/C(=N/C(=O)c1ccc(C(F)(F)F)cc1)Nc1cc(-c2cccc(O)c2)n[nH]1 [Compound A-564, (Z)—N-((tert-Butylamino)((3-(3-hydroxyphenyl)-1H-pyrazol-5-yl)amino)methylene)-4-(trifluoromethyl)benzamide] | < 10 | – | < 10
CC(C)(C)N/C(=N/C(=O)c1ccc(C(F)(F)F)cc1)Nc1cc(C(=O)O)n[nH]1 [Compound A-565, (Z)-5-(3-(tert-Butyl)-2-(4-(trifluoromethyl)benzoyl)guanidino)-1H-pyrazole-3-carboxylic acid] | > 10 | – | > 10
CC(C)CN/C(=N/C(=O)c1cccc([S+](C)[O-])c1)Nc1cc(-c2ccc(F)cc2)n[nH]1 (centres unmarked) [Compound A-566, (Z)—N-(((3-(4-Fluorophenyl)-1H-pyrazol-5-yl)amino)(isobutylamino)methylene)-3-(methylsulfinyl)benzamide] | < 10 | – | < 10
O=C(/N=c1\[nH]c2cc(C(F)(F)F)nn2c(=O)n1Cc1ccc(F)cc1Cl)c1ccc(F)c(F)c1 [Compound A-567, (E)-N-(3-(2-chloro-4-fluorobenzyl)-4-oxo-7-(trifluoromethyl)-3,4-dihydropyrazolo[1,5-a][1,3,5]triazin-2(1H)-ylidene)-3,4-difluorobenzamide] | < 10 | – | < 10
CC1(C)Cn2nc(-c3ccc(F)cc3)cc2N/C(=N\C(=O)c2ccc(F)cc2)N1 [Compound A-568, (Z)-4-fluoro-N-(8-(4-fluorophenyl)-4,4-dimethyl-4,5-dihydro-1H-pyrazolo[1,5-a][1,3,5]triazepin-2(3H)-ylidene)benzamide] | < 10 | – | < 10
O=C(/N=C1\Nc2cc(-c3ccc(F)cc3)nn2C[C@@H]2CCCN12)c1ccc(F)cc1 [Compound A-569, (S,E)-4-fluoro-N-(2-(4-fluorophenyl)-8,9,9a,10-tetrahydro-4H-pyrazolo[1,5-a]pyrrolo[1,2-e][1,3,5]triazepin-5(7H)-ylidene)benzamide] | > 10 | – | > 10
CC(C)CN/C(=N/C(=O)c1ccc(F)c(F)c1)Nc1cc(-c2ccc(CO)cc2)n[nH]1 [Compound A-570, (Z)-3,4-Difluoro-N-(((3-(4-(hydroxymethyl)phenyl)-1H-pyrazol-5-yl)amino)(isobutylamino)methylene)benzamide] | > 10 | – | > 10
COc1ccc(-c2cc(N/C(=N\C(=O)c3ccc(C(F)(F)F)cc3)NCC(C)C)[nH]n2)cc1F [Compound A-571] | < 10 | < 10 | –
COC[C@H](C)N/C(=N/C(=O)c1ccc(C(F)(F)F)cc1)Nc1cc(-c2ccc(OC)c(F)c2)n[nH]1 [Compound A-572] | < 10 | > 10 | –
COc1ccc(-c2cc(N/C(=N\C(=O)c3ccc(C(F)(F)F)cc3)NCC(C)(C)C)[nH]n2)cc1F [Compound A-573] | < 10 | > 10 | –
COc1ccc(-c2cc(N/C(=N\C(=O)c3ccc(C(F)(F)F)cc3)NC3CCCC3)[nH]n2)cc1F [Compound A-574] | < 10 | > 10 | –
COc1ccc(-c2cc(N/C(=N\C(=O)c3ccc(C(F)(F)F)cc3)NC(C)(C)C)[nH]n2)cc1F [Compound A-575] | < 10 | < 10 | –
